The values that follow come from US11708344B2, “Flavone derivatives for the treatment and prophylaxis of hepatitis B virus disease” (Hoffmann-La Roche Inc., priority 2018, dated 2023).

SMILES strings stand for the structures. Read-outs that look alike come from different tables or passages of the source.

Data set [1] concerns HBeAg (surrogate marker for cccDNA) in HepDES19 cells. The experiment in a line: Engineered HepDES19 primary screen assay (HBeAg ELISA). The class given is cell-based, HBV. In short, it runs like this:
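IC50 values come from 4-parameter logistic fits of HBeAg ELISA signal, the cccDNA surrogate, with CCK-8 run in parallel for viability. Compounds at half-log dilutions with 1% DMSO were applied for 5 days at 37 °C to HepDES19 cells previously cultured 8 days without Tet.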
For orientation: In an ELISA, binding on a coated surface is turned into a signal by an enzyme label.

Data set [2] has as its system HBsAg in HBV-infected PHH. The experiment in a line: Cryopreserved primary human hepatocytes (PHH) HBV infection assay, extracellular HBsAg (CLIA). The class given is cell-based. The protocol:
This assay is used to confirm the anti-HBV effect of the compounds in HBV PHH infection assay. Cryopreserved PHH (BioreclamationIVT, Lot YJM) was thawed at 37° C. and gently transferred into pre-warmed InVitroGRO HT medium (BioreclamationIVT, Cat. S03317). The mixture was centrifuged at 70 relative centrifugal force (RCF) for 3 minutes at RT, and the supernatant was discarded. Pre-warmed InVitroGRO CP medium (BioreclamationIVT, Cat #S03316) was added to the cell pellet to gently re-suspend cells. The cells were seeded at the density of 5.8×10^4 cells per well to collagen I coated 96-well plate (Gibco, Cat. A1142803) with the InVitroGRO CP medium. All plates were incubated at 37° C. with 5% CO2 and 85% humidity.
At 20 hours after plating, the medium was changed to PHH culture medium (Dulbecco's Modified Eagle Medium (DMEM)/F12 (1:1) (Gibco, Cat. 11320-033), 10% fetal bovine semm (Gibco Cat. 10099141), 100 U/mL penicillin, 100 μg/mL streptomycin (Gibco, Cat. 151401-122), […] (Invitrogen Cat. PHG0311L), 20 ng/mL dexamethasone (Sigma, Cat. D4902) and 250 ng/mL human recombinant insulin (Gibco, Cat. 12585-014)). And the cells were incubated at 37° C. with 5% CO2 and 85% humidity for 4 hours. The medium was then changed to pre-warmed PHH culture medium containing 4% polyethylene glycol (PEG) MW8000 (Sigma, Cat. P1458-50 ML) and 1% DMSO (Sigma, Cat. D2650). 5.8×10^6 genomic equivalents of HBV were added into the medium.
At 24 hours post-infection, the cells were gently washed with PBS and refreshed with PHH culture medium supplemented with 1% DMSO, and 0.25 mg/mL Matrix gel (Corning, Cat. 356237) at 200 μL per well. All plates were immediately placed in at 37° C. CO2 incubator.
24 hours later, serial dilutions of compounds made with DMSO were further diluted with the same culture medium (PHH culture medium supplemented with 1% DMSO and 0.25 mg/mL Matrix gel as described above) before they were added to the cells to reach desired final compound concentrations and 1% DMSO concentration. The medium containing the compounds were refreshed every three days.
At 9 days post-compound treatment, extracellular HBsAg level were measured with Chemiluminescence Immuno Assay (CLIA) kit (Autobio, HBsAg Quantitative CLIA). Extracellular HBV DNA was extracted by MagNA Pure 96 system (Roche) and then determined by quantitative PCR with the following primers and probe: […]
HBsAg IC50 and HBV DNA IC50 values were derived from the dose-response curve using 4 parameter logistic curve fit method. The compounds of formula (I) have HBsAg IC50<20 μM, particularly <1 μM; and HBV DNA IC50<50 μM.

The nature of data set [3]: Human microsome stability assay. The data set is classed as in vitro ADME. As to conditions: human liver microsomes, 1 μM test compound, 0.5 mg/mL microsomal protein, 37° C., pH 7.4, 0-30 minutes. In short, it runs like this:
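Parent compound remaining was measured by LC-MS/MS at 0, 3, 6, 9, 15 and 30 min, following ACN quench. Reactions held 1 μM compound and 0.5 mg/mL human liver microsomal protein in pH 7.4 phosphate buffer at 37 °C, started by NADPH regeneration (1 mM NADP, 1 mM MgCl2); controls lacked NADPH.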
In general terms: Liver microsomes are a subcellular fraction often used to study metabolism.

The mark [4] stands for this setting: Hepatitis B virus, HepDES19, 120 h, read-out: IC50 (HBeAg level, HepDES19 primary screen assay), HepDES19 cells, 5 days compound incubation, HBeAg ELISA.
Setting [5] is: Hepatitis B virus, Hepatocyte, 216 h, read-out: HBsAg IC50, Cryopreserved PHH infected with HBV, 9 days post-compound treatment, extracellular HBsAg.

For orientation: IC50 means the midpoint of a concentration-inhibition curve. With `Cc1cc(-c2cc(=O)c3cccc(Cl)c3o2)c(OC2CC(C(=O)O)C2)cc1Cl` (stereo in doubt) [Example B012-B, Trans-3-[5-chloro-2-(8-chloro-4-oxo-chromen-2-yl)-4-methyl-phenoxy]cyclobutanecarboxylic acid], the IC50 in data set [1] (read-out: IC50 (HBeAg level, HepDES19 primary screen assay), HepDES19 cells, 5 days compound incubation, HBeAg ELISA) came to 2720 nM; in data set [2] (read-out: HBsAg IC50, Cryopreserved PHH infected with HBV, 9 days post-compound treatment, extracellular HBsAg) it was 2560 nM.

For `COC(=O)CCOc1cc(C(F)(F)F)ccc1-c1cc(=O)c2cccc(Cl)c2o1` [Example A002, methyl 3-[2-(8-chloro-4-oxo-chromen-2-yl)-5-(trifluoromethyl)phenoxy]propanoate], the IC50 in data set [1] (setting [4]) is 795 nM; in data set [2] (setting [5]), 1820 nM.

`Cc1cc(-c2cc(=O)c3cccc(Cl)c3o2)c(OCCC(=O)O)cc1Br` [Example A006, 3-[5-bromo-2-(8-chloro-4-oxo-chromen-2-yl)-4-methyl-phenoxy]propanoic acid]: the IC50 was 1230 nM in data set [1] (setting [4]) and 1080 nM in data set [2] (setting [5]).

With `O=C(O)CCOc1cc2c(cc1-c1cc(=O)c3cccc(Cl)c3o1)OCO2` [Example A011, 3-[[6-(8-chloro-4-oxo-chromen-2-yl)-1,3-benzodioxol-5-yl]oxy]propanoic acid], the IC50 was determined as 415 nM in data set [1] (setting [4]) and 931 nM in data set [2] (setting [5]).

On to `COc1cc(OCCC(=O)O)c(-c2cc(=O)c3cccc(Cl)c3o2)cc1C` [Example A012, 3-[2-(8-chloro-4-oxo-chromen-2-yl)-5-methoxy-4-methyl-phenoxy]propanoic acid], for which the IC50 is 650 nM in data set [1] (setting [4]) and 2110 nM in data set [2] (setting [5]).

On to `Cc1ccc(-c2cc(=O)c3cccc(Cl)c3o2)c(OCCC(=O)O)c1` [Example A013, 3-[2-(8-chloro-4-oxo-chromen-2-yl)-5-methyl-phenoxy]propanoic], for which the IC50 was determined as 656 nM in data set [1] (setting [4]) and 1910 nM in data set [2] (setting [5]).

Turning to `O=C(O)COCCCOc1cc(C(F)(F)F)ccc1-c1cc(=O)c2c(O)ccc(Cl)c2o1` [Example C100, 2-[3-[2-(8-chloro-5-hydroxy-4-oxo-chromen-2-yl)-5-(trifluoromethyl)phenoxy]propoxy]acetic acid], in data set [3], the “Clearance of Human microsome” value was 6.15 mL/min/kg. The IC50 in data set [1] (setting [4]) was 691 nM.

For `COc1c(-c2ccc(Br)cc2OCCO[C@H]2C[C@@H](C(=O)O)C2)oc2c(Cl)cccc2c1=O` [Example C101, Cis-3-[2-[5-bromo-2-(8-chloro-3-methoxy-4-oxo-chromen-2-yl)phenoxy]ethoxy]cyclobutanecarboxylic acid], the “Clearance of Human microsome” value in data set [3] is 6.15 mL/min/kg. In addition, in data set [1] (setting [4]), the IC50 was 2380 nM.

As to `O=c1cc(-c2cc3c(cc2OCCO[C@H]2C[C@@H](C(=O)O)C2)OC(F)(F)O3)oc2c(Cl)cccc12` [Example C102, Cis-3-[2-[[6-(8-chloro-4-oxo-chromen-2-yl)-2,2-difluoro-1,3-benzodioxol-5-yl]oxy]ethoxy]cyclobutanecarboxylic acid], in data set [3], the “Clearance of Human microsome” value was found to be 7.11 mL/min/kg. Also, the IC50 in data set [1] (setting [4]) turned out to be 7000 nM.

In the case of `O=C(O)C1CCC(OCCCOc2cc(C(F)(F)F)ccc2-c2cc(=O)c3cccc(Cl)c3o2)C1` (stereo not shown) [Example C104, 3-[3-[2-(8-chloro-4-oxo-chromen-2-yl)-5-(trifluoromethyl)phenoxy]propoxy]cyclopentanecarboxylic acid], the “Clearance of Human microsome” value in data set [3] amounted to 6.15 mL/min/kg. Besides, the IC50 in data set [1] (setting [4]) amounted to 4460 nM.

Regarding `O=C(O)C1CCC(OCCCOc2cc(Br)ccc2-c2cc(=O)c3cccc(Cl)c3o2)C1` (stereo not shown) [Example C105, 3-[3-[5-bromo-2-(8-chloro-4-oxo-chromen-2-yl)phenoxy]propoxy]cyclopentanecarboxylic acid], in data set [3], the “Clearance of Human microsome” value turned out to be 6.15 mL/min/kg. For the same compound, the IC50 in data set [1] (setting [4]) was 1740 nM.

Turning to `CC(C)(COc1cc(Br)ccc1-c1cc(=O)c2cccc(Cl)c2o1)CO[C@H]1C[C@@H](C(=O)O)C1` [Example C110-A, cis-3-[3-[5-bromo-2-(8-chloro-4-oxo-chromen-2-yl)phenoxy]-2,2-dimethyl-propoxy]cyclobutanecarboxylic acid], the “Clearance of Human microsome” value in data set [3] is 6.15 mL/min/kg. In data set [1] (setting [4]), the IC50 stood at 433 nM.

Consider `CC(C)(COc1cc(Br)ccc1-c1cc(=O)c2cccc(Cl)c2o1)CO[C@H]1C[C@H](C(=O)O)C1` [Example C110-B, trans-3-[3-[5-bromo-2-(8-chloro-4-oxo-chromen-2-yl)phenoxy]-2,2-dimethyl-propoxy]cyclobutanecarboxylic acid], for which the “Clearance of Human microsome” value in data set [3] came out at 6.15 mL/min/kg. In addition, the IC50 in data set [1] (setting [4]) was 3740 nM.

For the compound `O=C(O)[C@@H]1CCN(C(=O)COCCOc2cc(Br)ccc2-c2cc(=O)c3cccc(Cl)c3o2)C1` [Example C111, (3R)-1-[2-[2-[5-bromo-2-(8-chloro-4-oxo-chromen-2-yl)phenoxy]ethoxy]acetyl]pyrrolidine-3-carboxylic acid], in data set [3], the “Clearance of Human microsome” value stood at 6.15 mL/min/kg. The IC50 in data set [1] (setting [4]) came out at 1250 nM.

Take `O=C(O)[C@H]1CCN(C(=O)COCCOc2cc(Br)ccc2-c2cc(=O)c3cccc(Cl)c3o2)C1` [Example C112, (3S)-1-[2-[2-[5-bromo-2-(8-chloro-4-oxo-chromen-2-yl)phenoxy]ethoxy]acetyl]pyrrolidine-3-carboxylic acid]: in data set [3], the “Clearance of Human microsome” value is recorded as 6.15 mL/min/kg. Besides, the IC50 in data set [1] (setting [4]) is 11400 nM.

Turning to `O=C(O)COCC(O)COc1cc(C(F)(F)F)ccc1-c1cc(=O)c2cccc(Cl)c2o1` (stereo not shown) [Example C115, 2-[3-[2-(8-chloro-4-oxo-chromen-2-yl)-5-(trifluoromethyl)phenoxy]-2-hydroxy-propoxy]acetic acid], the “Clearance of Human microsome” value in data set [3] worked out at 6.15 mL/min/kg. The IC50 in data set [1] (setting [4]) amounted to 19200 nM.

With `O=C(COCCOc1cc(Br)ccc1-c1cc(=O)c2cccc(Cl)c2o1)NS(=O)(=O)C1CC1` [Example C116, 2-[2-[5-bromo-2-(8-chloro-4-oxo-chromen-2-yl)phenoxy]ethoxy]-N-cyclopropylsulfonyl-acetamide], the “Clearance of Human microsome” value in data set [3] worked out at 6.15 mL/min/kg. In addition, the IC50 in data set [1] (setting [4]) is 9130 nM.

Regarding `O=C(COCCCOc1cc(C(F)(F)F)ccc1-c1cc(=O)c2cccc(Cl)c2o1)NS(=O)(=O)C1CC1` [Example C117, 2-[3-[2-(8-chloro-4-oxo-chromen-2-yl)-5-(trifluoromethyl)phenoxy]propoxy]-N-cyclopropylsulfonyl-acetamide], the “Clearance of Human microsome” value in data set [3] is reported as 7.45 mL/min/kg. Also, the IC50 in data set [1] (setting [4]) is 2520 nM.

Regarding `O=C(COCCOc1cc(C(F)(F)F)ccc1-c1cc(=O)c2cccc(Cl)c2o1)NS(=O)(=O)C1CC1` [Example C118, 2-[2-[2-(8-chloro-4-oxo-chromen-2-yl)-5-(trifluoromethyl)phenoxy]ethoxy]-N-cyclopropylsulfonyl-acetamide], in data set [3], the “Clearance of Human microsome” value is 6.15 mL/min/kg. The IC50 in data set [1] (setting [4]) came out at 14700 nM.

As to `CS(=O)(=O)NC(=O)[C@H]1C[C@@H](OCCOc2cc(C(F)(F)F)ccc2-c2cc(=O)c3cccc(Cl)c3o2)C1` [Example C121, Cis-3-[2-[2-(8-chloro-4-oxo-chromen-2-yl)-5-(trifluoromethyl)phenoxy]ethoxy]-N-methylsulfonyl-cyclobutanecarboxamide], the “Clearance of Human microsome” value in data set [3] is 8.68 mL/min/kg. The IC50 in data set [1] (setting [4]) amounted to 5890 nM.
